# Assay results reported in patent US20240398801A1, “TREATMENT OF LEUKEMIA BASED ON LEUKEMIA HIERARCHY IN A PATIENT” (UNIVERSITY HEALTH NETWORK, priority 2021, published 2024).
# What was measured:
# human AML cells = experiment: Changes in cell type composition after drug treatment (deconvolution of RNA-seq from preclinical studies); format: cell-based
# Text: To identify RNA-seq datasets collected from AML samples before and after drug treatment, Applying the search terms “Acute Myeloid Leukemia” and “AML” with the “Homo sapien” and “RNA-sequencing” flags on Gene Expression Omnibus (GEO) and ArrayExpress, we identified 95 datasets posted before Jun. 17, 2021. From these, 53 were inhibitors that met the inclusion criteria of human AML samples with available RNA-sequencing data collected before and after drug treatment. Datasets with only differential expression results or Bigwig files were excluded. Datasets with less than three samples in each treatment group were also excluded, resulting in a total of 47 datasets included in the final analysis. Each dataset was processed and underwent TPM normalization and deconvolution with CIBERSORTx using a signature matrix of seven malignant cell types (LSPC-Quiescent, LSPC-Primed, LSPC-Cycle, GMP-like, ProMono-like, Mono-like, cDC-like). For quality control among cell line samples, the deconvolution correlation values from each sample across every dataset were compared and the jenks natural breaks algorithm was employed to identify cutoffs demarcating low, medium, and high correlation bins. Cell line samples classified as “low-correlation” with a correlation value below 0.437 were excluded from further analysis, leaving 42 datasets spanning 153 treatment conditions.
# Relative changes in cell type abundance in each treatment condition were evaluated using Wilcoxon rank-sum tests for technical replicates or Wilcoxon signed-rank tests for biological replicates with paired treatment conditions. For dimensionality reduction with UMAP, we focused exclusively on changes in cell type abundance where the p-value was <0.05 to emphasize the key changes in cell type composition induced by each drug, resulting in 125 treatment conditions spanning 38 studies. Absolute log p-values were used to represent the magnitude of shift in cell type abundance, and cell type changes where p>0.05 were assigned a magnitude of zero. […]
# AML engraftment = experiment: Patient-derived xenograft (PDX) response of AML patient samples to fedratinib, CC-90009 or their combination; format: in vivo, NOD.SCID mice; settings: for response rate: PDX
# Method: Using normalized malignant cell type composition data for 46 patient samples used for in vivo fedratinib or CC-90009 treatment, dimensionality reduction was performed and clustering was assigned using the leiden algorithm with a resolution of 0.7, yielding three clusters: Primitive, Mature, Intermediate/GMP. […] Samples were subsequently projected on the reference map for visualization and confirmation of cluster assignments.
# Patient samples were classified into response categories by comparing the relative reduction (RR) of AML engraftment in drug-treated mice versus vehicle-treated mice, as per Galkin et al 98. RR was calculated as: ((mean % engraftment in control mice)−(mean % engraftment in drug treated mice))/(mean % engraftment in control mice). Patient samples were classified as Responders if RR in the injected femur (Right Femur, RF) was >50%, classified as Partial Responders if we observed 20 to 50% RR in the RF or >20% in the non-injected femur (Bone Marrow, BM) only, and classified as Non-Responders if there was no statistically significant difference in engraftment levels between control- and drug-treated mice, or if RR was <20% in both RF and BM.
# Samples with unknown NPM1 mutation status were subsequently assigned as NPM1 mutant or NPM1 wild-type according to their cluster membership.
# NOD.SCID mice were bred and housed in the University Health Network (UHN) animal care facility and all animal experiments were performed in accordance with guidelines approved by the UHN animal care committee. Ten-week-old NOD.SCID mice were irradiated (225 cGy) and pretreated with anti-CD122 antibody (200 μg per mouse), 24 hours prior to transplantation. Viably frozen mononucleated cells from AML patients were thawed, counted, and intrafemorally injected at the dose of 5 million cells per mouse. At day 21 post transplantation, treatment of either CC-90009 or Fedratinib alone with vehicle, or in combination, was initiated twice a day for 2 weeks. CC-90009 was given by intraperitoneal (IP) injections at the dose of 2.5 mg/kg and Fedratinib was dissolved in 0.5% methylcellulose and orally gavaged at 60 mg/kg. Following treatment, levels of AML engraftment were assessed to determine the efficacy of drug treatment against the disease in the mice. Cells collected from the injected right femur, non-injected bone marrow of each individual mouse were stained with human specific antibodies and evaluated by flow cytometry. Antibodies used for assessment of human AML engraftment include: CD45-APC, CD33-PE-Cy5, CD19-V450, CD34-APC-Cy7, CD15-FITC (BD), CD33-PE-Cy5, and CD14-PE (Beckman Coulter).
# primary AML samples [1] = experiment: Association of LinClass-7 / LSC17 score with ex vivo drug sensitivity in primary AML drug screens; format: cell-based, human
# Method: Ex vivo drug response in BEAT-AML samples was measured through the Area Under the dose-response Curve (AUC) metric, wherein a low AUC corresponds to sensitivity while a high AUC corresponds to resistance. AUC values were scaled and multiplied by −1 to represent sensitivity in each treatment condition. Pearson correlation was used to measure association between cell type abundance and drug sensitivities, following recommendations from a benchmarking study by Smirnov et al^97. Associations were depicted using the R package “corrplot”, and drug sensitivity volcano plots were generated using the R package “EnhancedVolcano”. For associations of cell type abundance with clinical and biological features, absolute cell type abundance was always used and pearson correlations were calculated unless otherwise specified.
# To derive the LinClass-7 score, logCPM-normalized expression of 16 genes from the LSC17 assay were used as input features for LASSO regression: DNMT3B, GPR56, NGFRAP1, CD34, DPYSL3, SOCS2, MMRN1, KIAA0125, EMP1, NYNRIN, LAPTM4B, CDK6, AKR1C3, ZBTB46, CPXM1, ARHGAP22. The 17th gene, C19orf77, was excluded due to lack of expression data in the Leucegene cohort. LASSO regression was performed on negative PC2 (high in Primitive and low in Mature) with leave-one-out cross validation using the LassoCV function from scikit-learn with a path length of 0.1. Patients from TCGA and Leucegene were combined into a training set, and patients from BEAT-AML were used as a validation set to evaluate the strength of the association between LinClass-7 and PC2.
# primary AML samples [2] = experiment: Selinexor in vivo treatment of primary AML samples, cell type abundance by RNA-seq deconvolution; design: species or system NSG mice; settings: primary AML samples treated in vivo
# Method: RNA was extracted from bulk peripheral blood mononuclear cells using an RNeasy Micro Kit (Qiagen). Libraries were constructed using SMART-Seq (Clonetec). A paired-end 50-base-pair flow-cell lane Illumina HiSeq 2000 yielded an average of 240 million aligned reads per sample. To align RNA-seq reads from samples used in selinexor and fedratinib treatments, Illumina paired-end sequence data were analyzed with BWA/v0.6 alignment software with option (-s) to disable Smith-Waterman alignment. Reads were mapped onto GRCh37-lite reference genome and exon-exon junction reference whose coordinates were defined based on transcript annotations in Ensembl/v59. Reads with mapping quality <10 were discarded and duplicate reads were tagged using the Picard's MarkDuplicates program. JAGuaR 2.1 was used to incorporate reads spanning multiple exons into the alignment by introducing large alignment gaps. All transcripts of a given gene were collapsed into a single gene model such that exonic bases were the union of exonic bases that belonged to all known transcripts of the gene. Read counts and subsequently RPKM counts were obtained by counting the fraction of each read that overlapped with an exonic region for that gene. To align RNA-seq reads from functionally annotated LSC fractions, sequence data was aligned against GRCh38 and transcript sequences downloaded from Ensembl build 90 using STAR 2.5.2a. […]
# AML = experiment: Subgroup analysis of the ALFA-0701 trial by LinClass-7 score; format: in vivo, human
# [3] = AMLs with Intermediate/GMP hierarchies
# [4] = AMLs with Primitive hierarchies
# [5] = added to standard chemotherapy vs chemotherapy alone, LinClass-7 low (mature) AML
compound,measurement,setting,value
CC1=C(/C=C/C(C)=C/C=C/C(C)=C/C(=O)O)C(C)(C)CCC1 [ATRA],blast population from which differentiation is induced,human AML cells,predominantly from GMP-like blasts
Cc1c(-c2ccc(-c3ccccc3F)cc2)nc2ccc(F)cc2c1C(=O)O [Brequinar],Quiescent LSPC abundance after treatment,human AML cells; accompanying induced differentiation,reduction
O=C1CCC(N2Cc3cc(CNC(=O)C(F)(F)c4ccc(Cl)cc4)ccc3C2=O)C(=O)N1 (stereo not drawn) [CC-90009],response rate,AML engraftment; [3],83%
same,response rate,AML engraftment; AMLs with Mature hierarchies,88%
same,response rate,AML engraftment; [4],40%
same,response among Primitive AMLs,AML engraftment; Primitive AMLs lacking NPM1c mutation and ETC signatures,favorable response
same,response among Primitive AMLs,AML engraftment; Primitive AMLs with NPM1c mutations and electron transport chain signatures,poor response
FC(F)(F)c1ccc(/C=C/c2nc(COc3ccc(CCCCn4ccnn4)cc3)co2)cc1 [Mubritinib],"blasts targeted, from correlation of LinClass-7 score with drug sensitivity",primary AML samples [1]; drug screens of Tyner et al and Lee et al,primitive blasts
same,difference in ex vivo sensitivity between patient samples with high and low score,primary AML samples [1]; split by LSC17,no significant difference
same,difference in ex vivo sensitivity between patient samples with high and low score,primary AML samples [1]; split by LinClass-7,stark differences
CC1(C)CCC(c2ccc(Cl)cc2)=C(CN2CCN(c3ccc(C(=O)NS(=O)(=O)c4ccc(N[C@H](CCN5CCOCC5)CSc5ccccc5)c(S(=O)(=O)C(F)(F)F)c4)cc3)CC2)C1 [Navitoclax],difference in ex vivo sensitivity between patient samples with high and low score,primary AML samples [1]; split by LSC17,no significant difference
same,difference in ex vivo sensitivity between patient samples with high and low score,primary AML samples [1]; split by LinClass-7,stark differences
O=C(/C=C\n1cnc(-c2cc(C(F)(F)F)cc(C(F)(F)F)c2)n1)NNc1cnccn1 [Selinexor],Cycling LSPC population after treatment,human AML cells; primary AML samples treated in vitro,depletion
same,Cycling LSPC population after treatment,primary AML samples [2],depletion
Cc1cnc(Nc2ccc(OCCN3CCCC3)cc2)nc1Nc1cccc(S(=O)(=O)NC(C)(C)C)c1 [fedratinib],response rate,AML engraftment; [3],20%
same,response rate,AML engraftment; AMLs with Mature hierarchies,88%
same,response rate,AML engraftment; [4],46%
Gemtuzumab Ozogamicin [GO],event-free survival,AML; [5],significantly longer
same,relapse-free survival,AML; [5],significantly longer
same,survival benefit,"AML; added to standard chemotherapy, LinClass-7 high primitive AML",no significant survival benefit
same,overall survival,"AML; added to standard chemotherapy, LinClass-7 low (mature) AML",did not extend
